In assay [1] the test system is basal IOP in rabbits. As to the kind of experiment: Basal IOP in rabbits, topical administration. The settings on record: for effect on lowering basal IOP: one drop of 1 mM solution, other eye PBS. It counts as in vivo, rabbit.
Assay [2] deals with Na,K-ATPase isoforms α1, α2, α3. The settings on record: cited from earlier work.
The test system of assay [3] is Na,K-ATPase in bovine ciliary NPE cells. As to the kind of experiment: biochemical. The settings on record: 1 site model; read-out: Ki, nM ± SEM.
In assay [4] the test system is 4AP-induced IOP in rabbits. It counts as in vivo, rabbit.
The target in assay [5] is human Na,K-ATPase α1β1FXYD1 (Homo sapiens (Human), UniProt P05023). It counts as biochemical. The conditions noted are these: for Ki: read-out: Ki in nM ± SEM α1β1.
Assay [6] deals with human Na,K-ATPase α2β1FXYD1 (Homo sapiens, UniProt P50993). It counts as biochemical. The settings on record: read-out: Ki in nM ± SEM α2β1.
Assay [7] addresses human Na,K-ATPase α2β2FXYD1 (Homo sapiens (Human), UniProt P50993). It is filed as biochemical. The settings on record: for Ki: read-out: Ki in nM ± SEM α2β2.
The subject of assay [8] is human Na,K-ATPase α2β1FXYD1. It is filed as biochemical.
For assay [9], the target named is human Na,K-ATPase α2β3FXYD1 (Homo sapiens (Human), UniProt P50993+P54709). As to the kind of experiment: biochemical. It counts as biochemical.

The source of these data is patent publication US10668094B2, “Selective inhibitors of Alpha2-containing isoforms of Na,K-ATPase and use thereof for reduction of intraocular pressure” (Yeda Research and Development Co. Ltd., priority 2015, dated 2020).

SMILES strings stand for the structures. Entries after “also recorded” stand apart in the source; their conditions may differ. Read-outs that look alike come from different tables or passages of the source.

`C[C@H]1O[C@@H](O[C@H]2[C@@H](O)C[C@H](O[C@H]3[C@@H](O)C[C@H](O[C@H]4CC[C@@]5(C)[C@H](CC[C@@H]6[C@@H]5C[C@@H](O)[C@]5(C)[C@@H](C7=CC(=O)OC7)CC[C@]65O)C4)O[C@@H]3C)O[C@@H]2C)C[C@H](O)[C@@H]1O` [Digoxin, digoxin, reference compound]: the “effect on lowering basal IOP” value in assay [1] was “lack of effect; also recorded: neither digoxin nor DiB had a significant effect”. In assay [2], the “lower Ki values for α2 compared to α1” value is given as 3-4 fold. In addition, the Ki in assay [3] was determined as 91.7 ± 10.2 nM.

Regarding `C[C@H]1O[C@@H](O[C@H]2[C@@H](O)C[C@H](O[C@H]3[C@@H](O)C[C@H](O[C@H]4CC[C@@]5(C)[C@H](CC[C@@H]6[C@@H]5CC[C@]5(C)[C@@H](C7=CC(=O)OC7)CC[C@]65O)C4)O[C@@H]3C)O[C@@H]2C)C[C@H](O)[C@@H]1O` [Digitoxin, digitoxin], the “lower Ki values for α2 compared to α1” value in assay [2] is 3-4 fold.

Turning to `CC(C)CN1CCC(O[C@@H]2[C@H](C)O[C@@H](O[C@@H]3[C@H](C)O[C@@H](O[C@H]4CC[C@@]5(C)C(CCC6C5C[C@H](O)[C@]5(C)[C@@H](C7=CC(=O)OC7)CC[C@]65O)C4)C[C@@H]3O)C[C@@H]2O)OC(C)C1` (stereo partly drawn) [DiB], in assay [4] (10 μM), the “effect on 4AP-induced IOP” value is “still effective”. The Ki in assay [5] was found to be 92 nM; in [6], 20.6 ± 1.4 nM. For the same compound, the “effect on lowering basal IOP” value in [1] is listed as “lack of effect; also recorded: neither digoxin nor DiB had a significant effect”.

Take `CC1CN(CC2CC2)CCC(O[C@@H]2[C@H](C)O[C@@H](O[C@@H]3[C@H](C)O[C@@H](O[C@H]4CC[C@@]5(C)C(CCC6C5C[C@H](O)[C@]5(C)[C@@H](C7=CC(=O)OC7)CC[C@]65O)C4)C[C@@H]3O)C[C@@H]2O)O1` (stereo partly drawn) [DMcP]: the “concentration that prevents the 4AP-induced rise in IOP” value in assay [4] (one drop topically prior to 4AP) is 0.01 mM. Moreover, in [5], the “Ki for α1β1 lower than for digoxin” value is given as 2-3 fold. The Ki in assay [5] is 95.8 ± 13.7 nM; in assay [7], 8 ± 0.8 nM; in [6] it was 18.3 ± 1.6 nM; in [9] it was around 4 nM; in assay [9] (read-out: Ki in nM ± SEM α2β3), 4.3 ± 0.6 nM; in [3], 7.9 ± 2.2 nM. Also, the “Selectivity Ki ratio α1β1/α2β2” value in assay [7] is given as 12. Also, the “effect on lowering basal IOP” value in [1] is recorded as “notable effect”. The “reduction of basal IOP” value in assay [1] (rabbit with a basal IOP of 17 mm Hg) is “about 4 mm Hg”; in assay [1] (topical, test period of 4-5 hours) it was 20-25%. In [8], the “Selectivity Ki ratio α1β1/α2β1” value is recorded as 5.2. In assay [9], the “Ki for α2β3 lower than for digoxin” value is on record as “about 10 fold”. In assay [9], the “Selectivity Ki ratio α1β1/α2β3” value was 22.2. Also, the “selectivity for α2β3 over α1β1 (Ki α1β1:α2β3 ratio)” value (“selectivity … (Ki α1β1:α2β3 ratio)” below) in [9] came out at 22 fold.

Turning to `CC1CN(C)CCC(O[C@@H]2[C@H](C)O[C@@H](O[C@@H]3[C@H](C)O[C@@H](O[C@H]4CC[C@@]5(C)C(CCC6C5C[C@H](O)[C@]5(C)[C@@H](C7=CC(=O)OC7)CC[C@]65O)C4)C[C@@H]3O)C[C@@H]2O)O1` (stereo partly drawn) [DMe], the Ki was determined as 103 ± 5.6 nM in assay [5]; 20.4 ± 1.8 nM in [7]; 15.3 ± 1.2 nM in assay [6]; 10.8 ± 0.6 nM in [9] (read-out: Ki in nM ± SEM α2β3); 15.6 ± 1.3 nM in assay [3]. Also, the “Selectivity Ki ratio α1β1/α2β2” value in [7] came to 5.1. The “Selectivity Ki ratio α1β1/α2β1” value in assay [8] was 6.7. Besides, the “Selectivity Ki ratio α1β1/α2β3” value in assay [9] is reported as 9.5.

For the compound `CC1CN(C(C)C)CCC(O[C@@H]2[C@H](C)O[C@@H](O[C@@H]3[C@H](C)O[C@@H](O[C@H]4CC[C@@]5(C)C(CCC6C5C[C@H](O)[C@]5(C)[C@@H](C7=CC(=O)OC7)CC[C@]65O)C4)C[C@@H]3O)C[C@@H]2O)O1` (stereo partly drawn) [DiP], the Ki in assay [5] came out at 149 nM; in assay [7], 16.7 ± 1.9 nM; in assay [6], 28.9 ± 1.7 nM; in assay [9] (read-out: Ki in nM ± SEM α2β3), 10.3 ± 1.8 nM. Besides, the “Selectivity Ki ratio α1β1/α2β2” value in assay [7] is given as 8.9. In addition, the “Selectivity Ki ratio α1β1/α2β1” value in assay [8] was 5.1. Moreover, in [9], the “Selectivity Ki ratio α1β1/α2β3” value was 14.4.

As to `CC1CN(C2CCCCC2)CCC(O[C@@H]2C(C)O[C@@H](OC3C(C)OC(O[C@H]4CC[C@@]5(C)C(CCC6C5CC(O)[C@]5(C)[C@@H](C7=CC(=O)OC7)CC[C@]65O)C4)C[C@@H]3O)C[C@@H]2O)O1` (stereo in doubt) [DcH, 4-((3S,5R,8R,9S,10S,12R,13S,14S,17R)-3-(((2S,4S,5R,6R)-5-(((2S,4S,5S,6R)-5((4-cyclohexyl-2-methyl-1,4-oxazepan-7-yl)oxy)-4-hydroxy-6-methyltetrahydro-2H-pyran-2-yl)oxy)-4-hydroxy-6-methyltetrahydro-2H-pyran-2-yl)oxy)-12,14-dihydroxy-10,13-dimethylhexadecahydro-1H-cyclopenta[a]phenanthren-17-yl)furan-2(5H)-one], the Ki in [5] is 70.4 ± 4.1 nM; in [7], 15.3 ± 2.9 nM; in assay [6], 15.2 ± 3.7 nM; in assay [9] (read-out: Ki in nM ± SEM α2β3), 11.7 ± 4.5 nM. For the same compound, in assay [7], the “Selectivity Ki ratio α1β1/α2β2” value turned out to be 4.6. Moreover, the “Selectivity Ki ratio α1β1/α2β1” value in [8] was 4.6. In addition, the “Selectivity Ki ratio α1β1/α2β3” value in assay [9] is on record as 10.1. Moreover, the “selectivity … (Ki α1β1:α2β3 ratio)” value in [9] is listed as 10-12 fold.

As for `CC1CN(C[Si](C)(C)C)CCC(OC2C(O)CC(OC3C(O)CC(OC4CCC5(C)C(CCC6C5CC(O)C5(C)C(C7=CC(=O)OC7)CCC65O)C4)OC3C)OC2C)O1` (stereo not drawn) [DTMS], the Ki in [5] turned out to be 72.6 ± 17.6 nM; in assay [7], 14.3 ± 1.3 nM; in [6] it was 24.3 ± 4 nM; in assay [9] (read-out: Ki in nM ± SEM α2β3), 11.1 ± 1.6 nM. For the same compound, the “Selectivity Ki ratio α1β1/α2β2” value in [7] was found to be 5.1. Also, the “Selectivity Ki ratio α1β1/α2β1” value in assay [8] turned out to be 3. Also, the “Selectivity Ki ratio α1β1/α2β3” value in [9] stood at 6.5.

On to `CC1CN(C2CCCC2)CCC(O[C@@H]2C(C)O[C@@H](OC3C(C)OC(O[C@H]4CC[C@@]5(C)C(CCC6C5CC(O)[C@]5(C)[C@@H](C7=CC(=O)OC7)CC[C@]65O)C4)C[C@@H]3O)C[C@@H]2O)O1` (stereo in doubt) [DcPe, 4-((3S,5R,8R,9S,10S,12R,13S,14S,17R)-3-(((2S,4S,5R,6R)-5-(((2S,4S,5S,6R)-5-((4-cyclopentyl-2-methyl-1,4-oxazepan-7-yl)oxy)-4-hydroxy-6-methyltetrahydro-2H-pyran-2-yl)oxy)-4-hydroxy-6-methyltetrahydro-2H-pyran-2-yl)oxy)-12,14-dihydroxy-10,13-dimethylhexadecahydro-1H-cyclopenta[a]phenanthren-17-yl)furan-2(5H)-one], for which the inhibition constant Ki in [5] is 138 ± 21 nM; in assay [7], 33.5 ± 11.9 nM; in [6], 33.4 ± 7.5 nM; in assay [9] (read-out: Ki in nM ± SEM α2β3), 27.6 ± 9.5 nM. Further, the “Selectivity Ki ratio α1β1/α2β2” value in [7] amounted to 4.1. Moreover, the “Selectivity Ki ratio α1β1/α2β1” value in [8] is 4.1. In assay [9], the “Selectivity Ki ratio α1β1/α2β3” value worked out at 5. For the same compound, the “selectivity … (Ki α1β1:α2β3 ratio)” value in assay [9] is listed as 10-12 fold.

As to `CC1CN(CCC2CC2)CCC(O[C@@H]2[C@H](C)O[C@@H](O[C@@H]3[C@H](C)O[C@@H](O[C@H]4CC[C@@]5(C)C(CCC6C5C[C@H](O)[C@]5(C)[C@@H](C7=CC(=O)OC7)CC[C@]65O)C4)C[C@@H]3O)C[C@@H]2O)O1` (stereo partly drawn) [DEcP], the Ki in [5] stood at 86.1 ± 7 nM; in [7], 12.1 ± 1.9 nM; in [6], 14.3 ± 2 nM; in assay [9] (read-out: Ki in nM ± SEM α2β3), 7.2 ± 1 nM. Moreover, the “Selectivity Ki ratio α1β1/α2β2” value in assay [7] is 7.1. For the same compound, the “Selectivity Ki ratio α1β1/α2β1” value in [8] is on record as 6.02. The “Selectivity Ki ratio α1β1/α2β3” value in assay [9] is given as 12.02. Further, the “selectivity … (Ki α1β1:α2β3 ratio)” value in assay [9] is reported as 10-12 fold.

On to `CC1CN(CCS(C)(=O)=O)CCC(O[C@@H]2C(C)O[C@@H](OC3C(C)OC(O[C@H]4CC[C@@]5(C)C(CCC6C5CC(O)[C@]5(C)[C@@H](C7=CC(=O)OC7)CC[C@]65O)C4)C[C@@H]3O)C[C@@H]2O)O1` (stereo in doubt) [DESM, 4-((3S,5R,8R,9S,10S,12R,13S,14S,17R)-12,14-dihydroxy-3-(((2S,4S,5R,6R)-4-hydroxy-5-(((2S,4S,5S,6R)-4-hydroxy-6-methyl-5-((2-methyl-4-(2-(methylsulfonyl)ethyl)-1,4-oxazepan-7-yl)oxy)tetrahydro-2H-pyran-2-yl)oxy)-6-methyltetrahydro-2H-pyran-2-yl)oxy)-10,13-dimethylhexadecahydro-1H-cyclopenta[a]phenanthren-17-yl)furan-2(5H)-one], for which the Ki turned out to be 464 ± 14 nM in assay [5], 31.7 ± 3.2 nM in assay [7], 49.2 ± 1.9 nM in assay [6] and 24.7 ± 2.1 nM in [9] (read-out: Ki in nM ± SEM α2β3). Also, the “Selectivity Ki ratio α1β1/α2β2” value in [7] was 14.6. In addition, in assay [8], the “Selectivity Ki ratio α1β1/α2β1” value is 9.4. Also, the “Selectivity Ki ratio α1β1/α2β3” value in assay [9] was 18.8.

With `CC1CN(CC(F)(F)F)CCC(O[C@@H]2[C@H](C)O[C@@H](O[C@@H]3[C@H](C)O[C@@H](O[C@H]4CC[C@@]5(C)C(CCC6C5C[C@H](O)[C@]5(C)[C@@H](C7=CC(=O)OC7)CC[C@]65O)C4)C[C@@H]3O)C[C@@H]2O)O1` (stereo partly drawn) [DCF3], the Ki in [5] worked out at 119 nM; in [7], 18.1 ± 1.9 nM; in assay [6] it was 28.6 ± 0.9 nM; in assay [9] (read-out: Ki in nM ± SEM α2β3), 12.4 ± 1.5 nM. Also, the “Selectivity Ki ratio α1β1/α2β2” value in assay [7] is recorded as 6.5. Also, in assay [8], the “Selectivity Ki ratio α1β1/α2β1” value is on record as 4.1. The “Selectivity Ki ratio α1β1/α2β3” value in [9] is reported as 9.6.
